# Assay results from paper PMC5590477, “Biotinylated N-Acetyllactosamine- and N,N-Diacetyllactosamine-Based Oligosaccharides as Novel Ligands for Human Galectin-3” (Bioengineering, 2017).
# Values joined by “and” are separate entries in the source; they are usually repeats but may differ in a detail not shown here. Equal values may be shown once.
# Columns and labels:
# human His6Gal-3 [1] = molecular target: T1, human His6Gal-3 (Homo sapiens, UniProt P17931); assay: ELISA-type binding of Gal-3 to immobilized glycans and neo-glycoproteins; settings: for Gal-3 binding to immobilized tetrasaccharide (in words): glycan (5 nmol) immobilized on aminoreactive surface; for selectivity for Gal-3 binding compared with Gal-1 (in words): immobilized glycans, 1 µM protein concentration
# T1 construct: made in house; host or cells: Escherichia coli Rosetta (DE3) pLysS
# T1 sequence (P17931 whole entry): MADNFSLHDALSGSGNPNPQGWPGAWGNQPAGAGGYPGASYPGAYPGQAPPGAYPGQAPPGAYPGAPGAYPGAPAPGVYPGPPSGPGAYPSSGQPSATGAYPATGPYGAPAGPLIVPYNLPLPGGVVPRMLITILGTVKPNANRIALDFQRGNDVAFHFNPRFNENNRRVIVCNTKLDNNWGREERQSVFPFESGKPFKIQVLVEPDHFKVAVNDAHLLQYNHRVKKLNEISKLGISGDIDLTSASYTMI
# Procedure: (§1) The synthesized glycans and neo-glycoproteins were analyzed for binding of Gal-3 and Gal-1 in 96-well microtiter plate formats. Glycans 11 and 12, as well as the corresponding LacNAc-LacNAc-linker-NH2 1a and LacdiNAc-LacNAc-linker-NH2 2a (deprotected forms of 1 and 2) were immobilized via the amino group in aminoreactive microtiter plates (Immobilizer Amino, Nunc, Wiesbaden, Germany). The immobilization of 5 nmol glycan in sodium carbonate buffer (100 mM, pH 9.6) was done overnight. For immobilizing neo-glycoproteins, 5 pmol protein were incubated in PBS (pH 7.5) in MaxiSorp microtiter plates (Nunc) overnight. Wells were then washed with PBS-Tween (0.05% (v/v)) and blocked with 2% BSA in PBS followed by incubation for one hour with galectins diluted in EPBS. Incubation with anti-His6-peroxidase (Roche) was done subsequently. Microtiter plates were read out at 495 nm after conversion of OPD substrate (o-phenylenediamine, Dako, Hamburg, Germany). Measured data were analyzed using Sigma Plot (Systat software GmbH, Erkrath, Germany).
# human His6Gal-3 [2] = molecular target: T1, human His6Gal-3; assay: Competitive inhibition of Gal-3 binding to immobilized asialofetuin (ASF), ELISA-type; settings: for IC50: inhibition of Gal-3 binding to immobilized ASF (5 pmol), 1 h in PBS; for Relative Potency: from IC50, relative to free tetrasaccharide 6 (13 series) or 7 (14 series); for Relative Potency per Glycan: inhibitory potency per glycan, relative to 6 (13 series) or 7 (14 series)
# Procedure: Neo-glycoproteins 13b, 13d, 13e and 14b, 14d, 14e, as well as glycans 1, 2, 6 and 7 were used in a competitive inhibition assay. Asialofetuin (ASF, 5 pmol in PBS) as the standard glycoprotein was immobilized overnight in microtiter plates (MaxiSorp, Nunc). After blocking as described before, different concentrations of inhibitor and His6Gal-3 were simultaneously incubated for one hour in PBS. Residual bound galectin was detected as described above. Evaluation of the measured data was done using Sigma Plot. All assays were reproduced in at least three independent measurements.
# human His6Gal-3 [3] = molecular target: T1, human His6Gal-3; assay: Surface plasmon resonance with immobilized Gal-3; format: binding; settings: SPR, ligand in flow (20 µL/min) over immobilized Gal-3, one concentration, fit with Scrubber2; read-out: Apparent KD
# Procedure: SPR spectroscopy was done with Reichert SR7500DC System (XanTec bioanalytics, Düsseldorf, Germany) and carboxymethyldextran hydrogel sensor chips complexed with Ni^2+ ions (200M, XanTec bioanalytics). These surfaces allow reversible immobilization of His6-tagged proteins. Human His6Gal-3 (5 pmol in EPBS) was immobilized on the sample channel with a flowrate of 10 µL/min after 5 mM NiCl2 solution was injected. The reference channel stayed untreated.
# The binding experiments were carried out with a flow rate of 20 µL/min by injecting neo-glycoproteins 13a–f and 14a–f (2 pmol in PBS) and recently synthesized neo-glycoproteins 15a–f and 16a–f (2 pmol in PBS), as well as BSA and ASF as the control. The dissociation time was three minutes. Between the measurements, the surface was regenerated with 0.5 M Na EDTA (pH 8.5) to remove Ni^2+ together with Gal-3. Each cycle started with NiCl2 followed by Gal-3 application.
# The measured data were subtracted by reference values and analyzed using Integrated SPRAutolink (Reichert technologies, Depew, NY, USA) and Scrubber2 (version 2.0c, BioLogic Software, Campbell ACT, Australia).
# human His6Gal-1C2S = molecular target: T2, human His6Gal-1C2S (Homo sapiens, UniProt P09382, C3S); assay: ELISA-type binding of Gal-1 to immobilized glycans and neo-glycoproteins; settings: 1 µM Gal-1, immobilized ligand 5 pmol per well
# T2 construct: made in house; host or cells: Escherichia coli Rosetta (DE3) pLysS
# T2 sequence (P09382 whole entry C3S): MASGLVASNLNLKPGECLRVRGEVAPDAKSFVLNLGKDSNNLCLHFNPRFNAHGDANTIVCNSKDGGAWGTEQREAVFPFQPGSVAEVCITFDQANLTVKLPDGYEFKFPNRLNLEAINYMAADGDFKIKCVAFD
# Procedure: as §1
compound,measurement,setting,value
LacdiNAc-LacNAc-linker-NH2 [Compound 2a],Gal-3 binding to immobilized tetrasaccharide (in words),human His6Gal-3 [1],essentially no binding
CC(=O)N[C@@H]1[C@@H](O)[C@H](O[C@@H]2O[C@H](CO)[C@H](O)[C@H](O[C@@H]3O[C@H](CO)[C@@H](O[C@@H]4O[C@H](CNNC(=O)CCCCCNC(=O)CCCC[C@@H]5SCC6NC(=O)NC65)[C@H](O)[C@H](O)[C@H]4O)[C@H](O)[C@H]3NC(C)=O)[C@H]2O)[C@@H](CO)O[C@H]1NC(=S)NCCN (some centres unmarked) [Compound 8],Gal-3 binding to immobilized tetrasaccharide (in words),human His6Gal-3 [1],high binding signals
same,selectivity for Gal-3 binding compared with Gal-1 (in words),human His6Gal-3 [1],high selectivity
"CC(=O)N[C@@H]1[C@@H](O)[C@H](O[C@@H]2O[C@H](CO)[C@H](O)[C@H](O[C@@H]3O[C@H](CO)[C@@H](O[C@@H]4O[C@H](CO)[C@H](O)[C@H](O)[C@H]4O)[C@H](O)[C@H]3NC(C)=O)[C@H]2O)[C@@H](CO)O[C@H]1NC(=S)NCCNC(=O)OC(C)(C)C [Compound 1, LacNAc-LacNAc-linker-NH2-tBoc]",IC50,human His6Gal-3 [2],14 µM
"CC(=O)N[C@@H]1[C@@H](O)[C@H](O[C@@H]2O[C@H](CO)[C@H](O)[C@H](O[C@@H]3O[C@H](CO)[C@@H](O[C@@H]4O[C@H](CNNC(=O)CCCCCNC(=O)CCCC[C@@H]5SCC6NC(=O)NC65)[C@H](O)[C@H](O)[C@H]4NC(C)=O)[C@H](O)[C@H]3NC(C)=O)[C@H]2O)[C@@H](CO)O[C@H]1NC(=S)NCCNC(=O)OC(C)(C)C (some centres unmarked) [Compound 7, 6-biotin LacdiNAc-LacNAc-linker-NH2-tBoc]",Relative Potency,human His6Gal-3 [2],1.0 ± 0.2
same,IC50,human His6Gal-3 [2],7.66 ± 1.24 µM
same,Relative Potency per Glycan,human His6Gal-3 [2],1.0 ± 0.2
LacNAc-LacNAc-linker-NH2 [Compound 1a],Gal-3 binding to immobilized tetrasaccharide (in words),human His6Gal-3 [1],rather weak
"CC(=O)N[C@@H]1[C@@H](O)[C@H](O[C@@H]2O[C@H](CO)[C@H](O)[C@H](O[C@@H]3O[C@H](CO)[C@@H](O[C@@H]4O[C@H](CO)[C@H](O)[C@H](O)[C@H]4NC(C)=O)[C@H](O)[C@H]3NC(C)=O)[C@H]2O)[C@@H](CO)O[C@H]1NC(=S)NCCNC(=O)OC(C)(C)C [Compound 2, LacdiNAc-LacNAc-linker-NH2-tBoc]",IC50,human His6Gal-3 [2],~8 µM
"CC(=O)N[C@@H]1[C@@H](O)[C@H](O[C@@H]2O[C@H](CO)[C@H](O)[C@H](O[C@@H]3O[C@H](CO)[C@@H](O[C@@H]4O[C@H](CNNC(=O)CCCCCNC(=O)CCCC[C@@H]5SCC6NC(=O)NC65)[C@H](O)[C@H](O)[C@H]4O)[C@H](O)[C@H]3NC(C)=O)[C@H]2O)[C@@H](CO)O[C@H]1NC(=S)NCCNC(=O)OC(C)(C)C (some centres unmarked) [Compound 6, 6-biotin LacNAc-LacNAc-linker-NH2-tBoc]",Relative Potency,human His6Gal-3 [2],1.0 ± 0.1
same,IC50,human His6Gal-3 [2],14 µM and 14.8 µM
same,Relative Potency per Glycan,human His6Gal-3 [2],1.0 ± 0.1
"ASF: Asialofetuin, standard glycoprotein having nine N-glycosidic bound LacNAc units [reference compound]",Kd,human His6Gal-3 [3],0.075 ± 0.002 µM
same,Binding signal Galectin-1,human His6Gal-1C2S,0.40 ± 0.07
same,Binding signal Galectin-3,"human His6Gal-3 [1]; 1 µM Gal-3, immobilized ligand 5 pmol per well",0.38 ± 0.10
same,Kd,"human His6Gal-3 [1]; Gal-3 concentration at half-maximal binding to immobilized ligand (5 pmol), one site saturation fit, read-out: Apparent Kd",1.26 ± 0.25 µM
same,Relative Potency,"human His6Gal-3 [1]; from apparent Kd, in relation to ASF",1.00 ± 0.20
same,Relative Potency per Glycan,"human His6Gal-3 [1]; from apparent Kd, in relation to ASF, per glycan",0.11 ± 0.02
CC(=O)N[C@@H]1[C@@H](O)[C@H](O[C@@H]2O[C@H](CO)[C@H](O)[C@H](O[C@@H]3O[C@H](CO)[C@@H](O[C@@H]4O[C@H](CNNC(=O)CCCCCNC(=O)CCCC[C@@H]5SCC6NC(=O)NC65)[C@H](O)[C@H](O)[C@H]4NC(C)=O)[C@H](O)[C@H]3NC(C)=O)[C@H]2O)[C@@H](CO)O[C@H]1NC(=S)NCCN (some centres unmarked) [Compound 9],Gal-3 binding to immobilized tetrasaccharide (in words),human His6Gal-3 [1],highest binding
same,selectivity for Gal-3 binding compared with Gal-1 (in words),human His6Gal-3 [1],high selectivity
